Reference: the supplement of paper PMC10307832

Experiments:
Experiment in all cases: relative viability (nuclei count vs DMSO), 5 days (fraction); higher = more cells survive
Dabrafenib + Luminespib = compound: CC(C)(C)c1nc(-c2cccc(NS(=O)(=O)c3c(F)cccc3F)c2F)c(-c2ccnc(N)n2)s1 [Dabrafenib] + CCNC(=O)c1noc(-c2cc(C(C)C)c(O)cc2O)c1-c1ccc(CN2CCOCC2)cc1 [Luminespib] (partner 0.01 µM)
Procedure, shortened: (§1)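 Relative viability divides the nuclei count in treated wells by that in vehicle wells. Lung cancer cell lines were seeded in 1536-well plates, dosed by pin tool the next day, and fixed and stained after 5 days in one step with final 0.05% Triton X-100, 1% formaldehyde and 1 ug/ml Hoechst. Dosing was a single drug or a fixed anchor-drug dose plus five library-drug doses (not always all listed) in √10 steps, and values are medians of duplicate plates imaged at 4×.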

VX-702 + Palbociclib = compound: NC(=O)c1ccc(N(C(N)=O)c2c(F)cccc2F)nc1-c1ccc(F)cc1F [VX-702] + CC(=O)c1c(C)c2cnc(Nc3ccc(N4CCNCC4)cn3)nc2n(C2CCCC2)c1=O [Palbociclib] (partner 0.5 µM)
Procedure, shortened: as §1

Dabrafenib + Palbociclib = compound: CC(C)(C)c1nc(-c2cccc(NS(=O)(=O)c3c(F)cccc3F)c2F)c(-c2ccnc(N)n2)s1 [Dabrafenib] + CC(=O)c1c(C)c2cnc(Nc3ccc(N4CCNCC4)cn3)nc2n(C2CCCC2)c1=O [Palbociclib] (partner 0.5 µM)
Procedure, shortened: as §1

Dabrafenib + AZD7762 = compound: CC(C)(C)c1nc(-c2cccc(NS(=O)(=O)c3c(F)cccc3F)c2F)c(-c2ccnc(N)n2)s1 [Dabrafenib] + NC(=O)Nc1cc(-c2cccc(F)c2)sc1C(=O)N[C@H]1CCCNC1 [AZD7762] (partner 0.2 µM)
Procedure, shortened: as §1

Cell Line	relative viability (Dabrafenib + Luminespib; first compound 0.009487 µM)	relative viability (Dabrafenib + Luminespib; first compound 0.03 µM)	relative viability (Dabrafenib + Luminespib; first compound 0.09487 µM)	relative viability (Dabrafenib + Luminespib; first compound 0.3 µM)	relative viability (VX-702 + Palbociclib; first compound 0.02 µM)	relative viability (VX-702 + Palbociclib; first compound 0.2 µM)	relative viability (VX-702 + Palbociclib; first compound 0.6325 µM)	relative viability (VX-702 + Palbociclib; first compound 2 µM)	relative viability (Dabrafenib + Palbociclib; first compound 0.009487 µM)	relative viability (Dabrafenib + Palbociclib; first compound 0.09487 µM)	relative viability (Dabrafenib + Palbociclib; first compound 0.3 µM)	relative viability (Dabrafenib + AZD7762; first compound 0.009487 µM)	relative viability (Dabrafenib + AZD7762; first compound 0.09487 µM)	relative viability (Dabrafenib + AZD7762; first compound 0.3 µM)	relative viability (Dabrafenib + Palbociclib; first compound 0.003 µM)	relative viability (Dabrafenib + Palbociclib; first compound 0.03 µM)	relative viability (Dabrafenib + AZD7762; first compound 0.03 µM)	relative viability (Dabrafenib + Luminespib; first compound 0.003 µM)	relative viability (Dabrafenib + AZD7762; first compound 0.003 µM)
NCI-H322M	1.05	0.692	0.856	0.803	0.458	0.48	0.489	0.449	0.545	0.526	0.477	0.613	0.619	0.612					
NCI-H358	0.396	0.35		0.237	0.127	0.141	0.134	0.142	0.149	0.153	0.122	0.866	0.637	0.775	0.111	0.12	0.6		
NCI-H441	0.317	0.389	0.461	0.347	0.19	0.235	0.204	0.162	0.268	0.2	0.248	1.22	1.03	1.34		0.239	1.02		
NCI-H460	0.0312	0.0334	0.042	0.0437	0.187	0.156	0.21	0.118	0.1	0.226	0.111	0.616	0.556	0.493	0.229	0.148	0.546	0.0327	0.282
NCI-H522	1.05	1.11		1.3	1.12	0.988	0.83	1.08	1.02	0.952	1.08	0.936	0.88	0.841		0.932	0.717		
NCI-H647	0.282	0.138	0.19	0.217	0.349	0.373	0.378	0.495	0.377	0.395	0.349	0.437	0.32	0.43	0.328	0.305			
NCI-H650	0.832	0.688	0.56	0.461	0.349	0.327	0.326	0.348	0.375	0.305	0.238	1.08	0.663	0.724		0.308	0.82		
NCI-H727	0.339	0.324		0.414	0.635	0.641	0.613	0.664	0.64	0.719	0.675	0.459	0.492	0.669	0.598				0.472
NCI-H838	0.311	0.236	0.292	0.275	0.225	0.214	0.198	0.227	0.238	0.214	0.236	0.885	0.889	0.89	0.207	0.209	0.91	0.35	0.993
NCI-H1355	0.83	0.611	0.628	0.69	0.411	0.424	0.441	0.404	0.458	0.409	0.47	0.814	0.655	0.803		0.373	0.669		
NCI-H1395	0.755	0.661	0.657	0.567	0.565	0.531	0.654	0.623	0.655	0.642	0.623	0.385	0.424	0.412		0.623	0.402	0.663	
NCI-H1437	1.13	1.17	1.17	1.14	0.308	0.318	0.319	0.318	0.35	0.384	0.413	1.16	1.11	1.18	0.307	0.363	1.19	1.15	1.09
NCI-H1651	0.87	0.789	0.831	0.608	0.503	0.494	0.502	0.56	0.494	0.524	0.505	0.466	0.43	0.451	0.499	0.51	0.461	0.65	0.25
NCI-H1666	0.995	1.04	0.997	1.11	0.683	0.69	0.595	0.526	0.671	0.565	0.686	0.879	0.778	0.937	0.643	0.675	0.742	0.988	0.592
NCI-H1734	0.175	0.207	0.203	0.198	0.347	0.288	0.323	0.308	0.352	0.344	0.347	0.587	0.452	0.378		0.287	0.5		
NCI-H1755	0.542	0.434	0.519	0.577	0.494	0.388	0.453	0.422	0.425	0.411	0.415	0.446	0.435	0.471	0.429	0.435	0.353	0.407	0.331
NCI-H1792	0.474	0.412	0.423	0.538	0.614	0.587	0.653	0.546	0.718	0.63	0.66	0.723	0.34	0.485		0.66	0.434		
